Test results from patent US20240148821A1, “PHARMACEUTICAL USE OF CYCLIC PEPTIDE COMPOUND” (CHUGAI SEIYAKU KABUSHIKI KAISHA, priority 2021, published 2024).
Bridge positions count the residues as written; N and C are the ends. Square brackets hold non-standard residues; d marks the D form. Peptide text beside a SMILES is read from it. * marks the point of attachment. hPhe(3-Cl-4-CF3) = N[C@@H](CCc1ccc(C(F)(F)F)c(Cl)c1)C(=O)O; NEtPhe(4-Cl) = CCN[C@@H](Cc1ccc(Cl)cc1)C(=O)O; NMePhe(4-Me) = CN[C@@H](Cc1ccc(C)cc1)C(=O)O; NMePhe(2-Cl) = CN[C@@H](Cc1ccccc1Cl)C(=O)O; Phe(3-I) = N[C@@H](Cc1cccc(I)c1)C(=O)O; NMe3Pal = CN[C@@H](Cc1cccnc1)C(=O)O; NMeCha = CN[C@@H](CC1CCCCC1)C(=O)O; Ala(cPr) = N[C@@H](CC1CC1)C(=O)O; NMeChg = CN[C@H](C(=O)O)C1CCCCC1; NMeT = CN[C@H](C(=O)O)[C@@H](C)O; hPhe = N[C@@H](CCc1ccccc1)C(=O)O; N(CH2CH2)2CF2 = FC1(F)CCN(*)CC1; NMeD = CN[C@@H](CC(=O)O)C(=O)O; NMeL = CN[C@@H](CC(C)C)C(=O)O; Cba = N[C@@H](CC1CCC1)C(=O)O; NMeV = CN[C@H](C(=O)O)C(C)C; NMeA = CN[C@@H](C)C(=O)O; NMeAib = CNC(C)(C)C(=O)O; Nle = CCCC[C@H](N)C(=O)O; Piperidide = C1CCN(*)CC1; Pyrrolidide = C1CCN(*)C1; Ac5c = NC1(C(=O)O)CCCC1; Aze = O=C(O)[C@@H]1CCN1; Aib = CC(C)(N)C(=O)O; Sar = CNCC(=O)O

test system: Human pancreatic cancer cell line AsPC-1 (G12D mutation Kras); assay: AsPC-1 cell growth inhibition (AsPC-1 CGI); format: cell-based; details: read-out: AsPC-1 cell growth inhibition, 50% growth inhibitory concentration (IC50 value); 96 hours, CellTiter-Glo, values classified in ranges
Experimental: Test compounds were serially dilated with dimethyl sulfoxide, and 200 nL was then dispensed to a U-bottom 96-well plate using Labcyte Echo. […] The cell suspension was dispensed to a. plate containing a test compound at 100 μL per well and incubated at 37° C. in a 5% carbon dioxide gas incubator. 96 hours later, 80 μL of CellTiter-Glo (Promega) was added to each well and fluorescence was measured.

| Structure (SMILES) | IC50 [nM] |
| --- | --- |
| CC(C)C[C@H]1C(=O)N[C@@H](CC2CC2)C(=O)N(C)CC(=O)N(C)CC(=O)N(C)[C@@H](CC2CCCCC2)C(=O)N(C)CC(=O)N[C@@H](CCc2ccc(C(F)(F)F)c(Cl)c2)C(=O)N2CCC[C@H]2C(=O)NC2(CCCC2)C(=O)N(C)[C@@H](C(C)C)C(=O)N(C)[C@H](C(=O)N2CCCCC2)CC(=O)N1C [Compound 421] ([NMeL][Ala(cPr)][Sar][Sar][NMeCha][Sar][hPhe(3-Cl-4-CF3)]P[Ac5c][NMeV][NMeD]-Piperidide; lactam N-11) | > 500 |
| CCCC[C@@H]1NC(=O)[C@H](Cc2cccc(I)c2)NC(=O)CN(C)C(=O)[C@H](Cc2ccc(Cl)cc2)N(CC)C(=O)CN(C)C(=O)CN(C)C(=O)[C@H]([C@@H](C)CC)NC(=O)[C@H](CC(C)C)N(C)C(=O)C[C@@H](C(=O)N2CCCCC2)N(C)C(=O)[C@H](CC(C)C)NC(=O)C(C)(C)N(C)C1=O [Compound 423] ([NMeL]I[Sar][Sar][NEtPhe(4-Cl)][Sar][Phe(3-I)][Nle][NMeAib]L[NMeD]-Piperidide; lactam N-11) | > 500 |
| CC[C@H](C)[C@@H]1NC(=O)[C@H](C)N(C)C(=O)C[C@@H](C(=O)N2CCCC2)N(C)C(=O)[C@H](C(C)C)N(C)C(=O)C(C)(C)NC(=O)[C@H](Cc2ccccc2Cl)N(C)C(=O)[C@H](CCc2ccc(C(F)(F)F)c(Cl)c2)NC(=O)CN(C)C(=O)[C@H](CC2CCCCC2)N(C)C(=O)CN(C)C(=O)CN(C)C1=O [Compound 426] ([NMeA]I[Sar][Sar][NMeCha][Sar][hPhe(3-Cl-4-CF3)][NMePhe(2-Cl)][Aib][NMeV][NMeD]-Pyrrolidide; lactam N-11) | > 500 |
| CC[C@H](C)[C@@H]1NC(=O)[C@H](CC(C)C)N(C)C(=O)C[C@@H](C(=O)N2CCCCC2)N(C)C(=O)[C@H](C2CCCCC2)N(C)C(=O)C2(CCCC2)NC(=O)[C@@H]2CCCN2C(=O)[C@H](CCc2ccc(C(F)(F)F)c(Cl)c2)NC(=O)CN(C)C(=O)[C@H]([C@@H](C)O)N(C)C(=O)CN(C)C(=O)CN(C)C1=O [Compound 427] ([NMeL]I[Sar][Sar][NMeT][Sar][hPhe(3-Cl-4-CF3)]P[Ac5c][NMeChg][NMeD]-Piperidide; lactam N-11) | > 500 |
| CC[C@H](C)[C@@H]1NC(=O)[C@H](C)N(C)C(=O)C[C@@H](C(=O)N2CCCCC2)N(C)C(=O)[C@H](C2CCCCC2)N(C)C(=O)C2(CCCC2)NC(=O)[C@H](Cc2cccnc2)N(C)C(=O)[C@H](CCc2ccc(C(F)(F)F)c(Cl)c2)NC(=O)CN(C)C(=O)[C@H](CC2CCCCC2)N(C)C(=O)[C@@H]2CCCN2C(=O)CN(C)C1=O [Compound 433] ([NMeA]I[Sar]P[NMeCha][Sar][hPhe(3-Cl-4-CF3)][NMe3Pal][Ac5c][NMeChg][NMeD]-Piperidide; lactam N-11) | > 500 |
| CC[C@H](C)[C@@H]1NC(=O)[C@H](CC(C)C)N(C)C(=O)C[C@@H](C(=O)N2CCCCC2)N(C)C(=O)[C@H](CC(C)C)NC(=O)C(C)(C)N(C)C(=O)[C@H](CCc2ccccc2)NC(=O)[C@H](Cc2cccc(I)c2)NC(=O)CN(C)C(=O)[C@H](Cc2ccc(C)cc2)N(C)C(=O)[C@@H]2CCN2C(=O)CN(C)C1=O [Compound 442] ([NMeL]I[Sar][Aze][NMePhe(4-Me)][Sar][Phe(3-I)][hPhe][NMeAib]L[NMeD]-Piperidide; lactam N-11) | > 500 |
| CC[C@H](C)[C@@H]1NC(=O)[C@H](CC(C)C)N(C)C(=O)C[C@@H](C(=O)N2CCCCC2)N(C)C(=O)[C@H](C(C)C)N(C)C(=O)[C@H](C)NC(=O)[C@H](CC(=O)N2CCC(F)(F)CC2)N(C)C(=O)[C@H](CCc2ccc(C(F)(F)F)c(Cl)c2)NC(=O)CN(C)C(=O)[C@H](CC2CCCCC2)N(C)C(=O)CN(C)C(=O)CN(C)C1=O [Compound 444] ([NMeL]I[Sar][Sar][NMeCha][Sar][hPhe(3-Cl-4-CF3)][NMeD](N(CH2CH2)2CF2)A[NMeV][NMeD]-Piperidide; lactam N-11) | > 500 |
| CC[C@H](C)[C@@H]1NC(=O)[C@H](C)N(C)C(=O)C[C@@H](C(=O)N2CCCCC2)N(C)C(=O)[C@H](C(C)C)N(C)C(=O)C2(CCCC2)NC(=O)[C@@H]2CCCN2C(=O)[C@H](CCc2ccc(C(F)(F)F)c(Cl)c2)NC(=O)[C@H]2CCCN2C(=O)[C@H](CC2CCCCC2)N(C)C(=O)[C@@H]2CCN2C(=O)CN(C)C1=O [Compound 447] ([NMeA]I[Sar][Aze][NMeCha][dP][hPhe(3-Cl-4-CF3)]P[Ac5c][NMeV][NMeD]-Piperidide; lactam N-11) | > 500 |
| CC(C)C[C@H]1C(=O)N[C@@H](CC2CCC2)C(=O)N(C)CC(=O)N(C)CC(=O)N(C)[C@@H](CC2CCCCC2)C(=O)N(C)CC(=O)N[C@@H](CCc2ccc(C(F)(F)F)c(Cl)c2)C(=O)N2CCC[C@H]2C(=O)NC2(CCCC2)C(=O)N(C)[C@@H](C(C)C)C(=O)N(C)[C@H](C(=O)N2CCCCC2)CC(=O)N1C [Compound 451] ([NMeL][Cba][Sar][Sar][NMeCha][Sar][hPhe(3-Cl-4-CF3)]P[Ac5c][NMeV][NMeD]-Piperidide; lactam N-11) | > 500 |
